In ChEMBL document CHEMBL1139637, “Synthesis, X-ray crystallographic analysis, and antitumor activity of 1-acyl-3,6-disubstituted phenyl-1,4-dihydro-1,2,4,5-tetrazines” (2005):

Key:
A549 [1] = experiment: Inhibition ratio against the growth of A-549 cells at 10e-4 mol/L concentration determined by SRB method; type: functional, Homo sapiens
A549 [2] = experiment: Inhibition ratio against the growth of A-549 cells at 10e-5 mol/L concentration determined by SRB method; type: functional, Homo sapiens
A549 [3] = experiment: Inhibition ratio against the growth of A-549 cells at 10e-6 mol/L concentration determined by SRB method; type: functional, Homo sapiens
A549 [4] = experiment: Inhibition ratio against the growth of A-549 cells at 10e-7 mol/L concentration determined by SRB method; type: functional, Homo sapiens
A549 [5] = experiment: Inhibition ratio against the growth of A-549 cells at 10e-8 mol/L concentration determined by SRB method; type: functional, Homo sapiens
P388 [6] = experiment: Inhibition ratio against the growth of P-388 cells at 10e-4 mol/L concentration determined by MTT method; type: functional, Mus musculus
P388 [7] = experiment: Inhibition ratio against the growth of P-388 cells at 10e-5 mol/L concentration determined by MTT method; type: functional, Mus musculus
P388 [8] = experiment: Inhibition ratio against the growth of P-388 cells at 10e-6 mol/L concentration determined by MTT method; type: functional, Mus musculus
P388 [9] = experiment: Inhibition ratio against the growth of P-388 cells at 10e-7 mol/L concentration determined by MTT method; type: functional, Mus musculus
P388 [10] = experiment: Inhibition ratio against the growth of P-388 cells at 10e-8 mol/L concentration determined by MTT method; type: functional, Mus musculus

| Compound | Inhibition ratio (A549 [1]) | Inhibition ratio (A549 [2]) | Inhibition ratio (A549 [3]) | Inhibition ratio (A549 [4]) | Inhibition ratio (A549 [5]) | Inhibition ratio (P388 [6]) | Inhibition ratio (P388 [7]) | Inhibition ratio (P388 [8]) | Inhibition ratio (P388 [9]) | Inhibition ratio (P388 [10]) |
| --- | --- | --- | --- | --- | --- | --- | --- | --- | --- | --- |
| CC(C)C(=O)N1N=C(c2ccccc2)NN=C1c1ccccc1 | 83.8 | 46.6 | 38.7 | 29.6 | 29.5 | 82.5 | 61.1 | 52 | 24.9 | 46.9 |
| O=C(CCl)N1N=C(c2ccc(C(F)(F)F)cc2)NN=C1c1ccc(C(F)(F)F)cc1 | 95.5 | 64.6 | 0 | 0 | 0 | 98.4 | 49.4 | 2.2 | 11.3 | 0 |
| CCC(=O)N1N=C(c2ccc(C(F)(F)F)cc2)NN=C1c1ccc(C(F)(F)F)cc1 | 84.7 | 48.1 | 21.7 | 0 | 9 | 68 | 21.1 | 6.7 | 6.3 | 0 |
| CC(=O)N1N=C(c2ccccc2)NN=C1c1ccccc1 | 85.1 | 0 | 0 | 0 | 0 | 62.7 | 10.9 | 6.6 | 5.5 | 9.2 |
| O=C(CCl)N1N=C(c2ccccc2)NN=C1c1ccccc1 | 95.4 | 95.8 | 35.3 | 4.1 | 13 | 99.1 | 100 | 3.9 | 3.6 | 0 |
| CCC(=O)N1N=C(c2ccccc2)NN=C1c1ccccc1 | 71.5 | 11.1 | 6.2 | 12.3 | 0 | 30.9 | 9.8 | 7.6 | 7.7 | 8.5 |
| CC(C)C(=O)N1N=C(c2ccc(C(F)(F)F)cc2)NN=C1c1ccc(C(F)(F)F)cc1 | 79.8 | 21 | 0 | 0 | 0 | 42.2 | 26.9 | 15 | 16.2 | 13.4 |
| CC(=O)N1N=C(c2ccc(C(F)(F)F)cc2)NN=C1c1ccc(C(F)(F)F)cc1 | 91.1 | 63.6 | 0 | 0 | 0 | 50.6 | 21.5 | 1.1 | 5 | 0 |
